Assays:
[1] = tested on: leukemia cell line SR; assay: MTT assay, SR; type: cell-based, human
[2] = tested on: leukemia cell line CCRF-CEM; assay: MTT assay, CCRF-CEM; type: cell-based, human; settings: control leukemia cell line (FIG. 8)
[3] = tested on: renal cancer cell line A498; assay: MTT assay, A498; settings: FIG. 6B
Experimental: (§1) MTT solution: 5 mg/mL Thiazolyl Blue Tetrazolium Bromide (MTT) in PBS. The solution was filter sterilized after adding MTT and stored at −20° C.; MTT solvent: 4 mM HCl, 0.1% Nondet P-40 (NP40) in isopropanol. cGAMP or cGAsMP solutions: 10-30 mg/ml in PBS, filter sterilized using a 0.2 μm filter. • B. MTT Assay for Attaching Cancer Cell Lines SF539, U251, A498, and ACHN
On day one, one T-25 flask was trypsinized and 5 ml of complete media was added to the cells. The cells and media were centrifuged in a sterile 15 ml falcon tube at 300×g rcf in the swinging bucket rotor for 5 min. […] Cells were counted and recorded per ml. Cells were diluted (cv=cv) to 75,000 cells per ml with complete RPMI media. 100 μl of cells (7500 total cells) were added into each well of a 96 well plate and incubated overnight. 24 hours later, 100 μl of medium or cGAMP or cGAsMP solutions were added to each well. On the fifth day, 20 μl of 5 mg/ml MTT were added to each well. One set of wells with MTT but no cells served as a control. All steps were done aseptically. The wells were incubated for 3.5 hours at 37° C. in a CO2 incubator. Media was carefully removed, taking care not to disturb the cells. No PBS rinse was performed. 150 μl MTT solvent was added. The plate was covered with foil and cells agitated on orbital shaker for 15 min. The absorbance was measured at 590 nm using a plate reader. […]

[4] = tested on: neuronal cancer cell line SF539; assay: MTT assay, SF539
Experimental: as §1
On day one, one T-25 flask was trypsinized and 5 ml of complete media was added to the cells. The cells and media were centrifuged in a sterile 15 ml falcon tube at 300×g rcf in the swinging bucket rotor for 5 min. […] Cells were counted and recorded per ml. Cells were diluted (cv=cv) to 75,000 cells per ml with complete RPMI media. 100 μl of cells (7500 total cells) were added into each well of a 96 well plate and incubated overnight. 24 hours later, 100 μl of medium or cGAMP or cGAsMP solutions were added to each well. On the fifth day, 20 μl of 5 mg/ml MTT were added to each well. One set of wells with MTT but no cells served as a control. All steps were done aseptically. The wells were incubated for 3.5 hours at 37° C. in a CO2 incubator. Media was carefully removed, taking care not to disturb the cells. No PBS rinse was performed. 150 μl MTT solvent was added. The plate was covered with foil and cells agitated on orbital shaker for 15 min. The absorbance was measured at 590 nm using a plate reader. Each assay was repeated five times. • C.

[5] = tested on: NF-κB; assay: NF-κB reporter assays
[6] = tested on: IFN-β in renal cancer cell line A498; assay: IFN-β induction in A498; settings: FIG. 7A
[7] = tested on: IFN-β in CNS cancer cell line SF539; assay: IFN-β induction in SF539; settings: FIG. 7B
[8] = tested on: leukemia cell line SR; assay: NCI60 antitumor screen, SR; settings: single dose of 10 μM
[9] = tested on: renal cancer cell line A498; assay: NCI60 antitumor screen, A498; settings: single dose of 10 μM
[10] = tested on: CNS cancer cell line SF539; assay: NCI60 antitumor screen, SF539; settings: single dose of 10 μM
[11] = tested on: IFN-β in control cell lines; assay: IFN-β induction in control cell lines; settings: two control cell lines tested (FIG. 7)
[12] = tested on: IFN-β reporter; assay: IFN-β reporter assay in THP1 blue cells; settings: for inducing the expression of IFN-β reporter: THP1 blue cells, cyclic dinucleotides added to the culture media (FIG. 3A)
Text: (§2) To confirm that cGAMP can induce the expression of IFN-β, we stimulated human monocytes THP1 blue cells with cGAMP and other three cyclic dinucleotides added to the culture media.

[13] = tested on: IFN-β; assay: IFN-β ELISA of THP1 culture supernatant; settings: for IFN-β levels in the culture supernatant by ELISA, response: THP1 cells (FIG. 3B); for IFN-β production: THP1 cells (FIGS. 13A-B)
Text: as §2

[14] = tested on: cytokines and chemokines; assay: Multiplex cytokine assays in THP1 cells
[15] = tested on: MMTV-BALB-neuT mouse mammary tumors; assay: MMTV-BALB-neuT spontaneous breast cancer model; settings: 0.1 mg per mouse intra-tumor once a day for three days; day 4 post-treatment; p value of 0.0009 (FIG. 15D)
Experimental: Comparisons were made between vehicle (veh.) and cGAMP treatment. The tumor growth was monitored for 4 days and growth rate was examined using serial caliper measurements. The tumor volume was calculated using the equation (a×b^2)/2 where “a” and “b” are length and width of the tumor, respectively. At the completion of the experiments, tumors were excised and statistical significance of differences in tumor volume was analyzed.

[16] = tested on: IFN-β; settings: intravenous (i.v.) injection, 100 μg/mice, sera ELISA (FIG. 3C)
Text: FIG. 3C is an IFN-β ELISA of sera from mice injected with cGAMP.

[17] = tested on: genome-wide gene expression; assay: Microarray analysis of gene expression in THP1 cells; settings: 20 μg/ml, 4 hours and 8 hours post treatment (FIG. 5)

Nc1nc2c(ncn2[C@@H]2O[C@@H]3COP(=O)(O)O[C@H]4[C@@H](O)[C@H](n5cnc6c(N)ncnc65)O[C@@H]4COP(=O)(O)O[C@@H]2[C@@H]3O)c(=O)[nH]1 [cGAMP, 2′,5′ cGAMP]
response of cell line to treatment, MTT ([1]; FIG. 8A (cGAMP), FIG. 8B (IFN-β)): responds strongly | antitumor activity, MTT ([1]; FIG. 14B): have antitumor activity | response of cell line to treatment, MTT [2]: did not respond | growth suppression, MTT [3]: suppresses the growth | growth suppression, MTT ([4]; FIG. 6A): suppresses the growth | antitumor activity, MTT ([4]; FIG. 14A): have antitumor activity | activation of NF-κB [5]: stimulate the activation of NF-κB | induction of IFN-β [6]: induces IFN-β | induction of IFN-β [7]: induces IFN-β | growth inhibition [8]: effectively inhibited the growth | growth inhibition [9]: effectively inhibited the growth | growth inhibition [10]: effectively inhibited the growth | induction of IFN-β [11]: quite low | inducing the expression of IFN-β reporter [12]: very potent | IFN-β levels in the culture supernatant by ELISA, response [13]: rapid responses | IFN-β production [13]: can induce | time at which induction of IFN-β peaked ([13]; THP1 cells, ELISA (FIG. 3B)): 8-10 hours post stimulation | expression of IL-1β ([14]; THP1 cell): does not up-regulate | expression of IL-8, TNF-α, GROα, IP-10, MCP-1, MCP-2, and RANTES ([14]; THP1 cell (FIG. 4)): up-regulation | tumor growth and tumor size [15]: effective for both reducing tumor growth and reducing tumor size | induction of IFN-β in mice [16]: rapid responses | number of genes up-regulated [17]: over 200 genes

Nc1nc2c(ncn2[C@@H]2O[C@@H]3COP(=O)(O)O[C@H]4[C@@H](O)[C@H](n5cnc6c(N)ncnc65)O[C@@H]4COP(=O)(O)O[C@H]3[C@H]2O)c(=O)[nH]1 [3′,5′ cGAMP, reference compound]
inducing the expression of IFN-β reporter [12]: lower activity | IFN-β levels in the culture supernatant by ELISA, response [13]: much weaker

Nc1nc2c(ncn2C2OC3COP(=O)(O)OC4C(COP(O)(=S)OC2C3O)OC(n2cnc3c(N)ncnc32)C4O)c(=O)[nH]1 (stereo not shown) [cGAsMP, 2′5′-cGAsMP]
antitumor activity, MTT ([1]; FIG. 14B): have antitumor activity | impact on cell viability compared with cGAMP ([1]; FIG. 14B): generally a bigger impact on cell viability at lower concentrations | antitumor activity, MTT ([4]; FIG. 14A): have antitumor activity | impact on cell viability compared with cGAMP ([4]; FIG. 14A): generally a bigger impact on cell viability at lower concentrations | potency in inducing IFN-β reporter gene expression, compared ([12]; THP1 cells, 0.2 to 25 μg/ml (FIG. 13B)): more potent than cGAMP | IFN-β production [13]: can induce | IFN-β levels relative to cGAMP ([13]; THP1 cells, 5 and 25 μg/ml, ELISA (FIG. 13A)): 5-10 times

From US20180344758A1, “Method of Treating Cancer with cGAMP or cGAsMP” (LIPOGEN LLC, priority 2014, published 2018)
